Measurements from patent publication US20230141433A1, “TRICYCLIC PESTICIDAL COMPOUNDS” (BASF SE, priority 2020, published 2023).

Key:
Assay type in all cases: in vivo
[1] = system: yellow fever mosquito (Aedes aegypti); assay: whole plant or invertebrate; conditions: 48 h, 2 days, read-out: mortality in comparison with untreated controls (larval mortality)
Protocol: (§1) If not otherwise specified, the test solutions are prepared as follows: The active compound is dissolved at the desired concentration in a mixture of 1:1 (vol:vol) distilled water:acetone. The test solution is prepared at the day of use. Test solutions are prepared in general at concentrations of 2500 ppm, 1000 ppm, 800 ppm, 500 ppm, 300 ppm, 100 ppm and 30 ppm (wt/vol).
Yellow Fever Mosquito (Aedes aegypti)
For evaluating control of yellow fever mosquito (Aedes aegypti) the test unit consisted of 96-well-microtiter plates containing 200 μl of tap water per well and 5-15 freshly hatched A. aegypti larvae. The active compounds were formulated using a solution containing 75% (v/v) water and 25% (v/v) DMSO. Different concentrations of formulated compounds or mixtures were sprayed onto the insect diet at 2.5 μl, using a custom built micro atomizer, at two replications. After application, microtiter plates were incubated at 28±1° C., 80±5% RH for 2 days. Larval mortality was then visually assessed.

[2] = system: vetch aphid (Megoura viciae); assay: Vetch aphid (Megoura viciae) contact or systemic test on broad bean leaf disks; conditions: foliar, 120 h, 5 days, read-out: mortality in comparison with untreated controls (aphid mortality)
Protocol: as §1
Vetch Aphid (Megoura viciae)
For evaluating control of vetch aphid (Megoura viciae) through contact or systemic means the test unit consisted of 24-well-microtiter plates containing broad bean leaf disks.
The compounds were formulated using a solution containing 75% v/v water and 25% v/v DMSO. Different concentrations of formulated compounds were sprayed onto the leaf disks at 2.5 μl, using a custom built micro atomizer, at two replications. After application, the leaf disks were air-dried and 5-8 adult aphids placed on the leaf disks inside the microtiter plate wells. The aphids were then allowed to suck on the treated leaf disks and incubated at about 23±1° C. and about 50±5% relative humidity for 5 days. Aphid mortality and fecundity was then visually assessed.

[3] = system: green peach aphid (Myzus persicae); assay: Green peach aphid (Myzus persicae) systemic test, artificial diet under membrane; conditions: 72 h, 3 days, read-out: mortality in comparison with untreated controls (aphid mortality)
Protocol: as §1
Green Peach Aphid (Myzus persicae) For evaluating control of green peach aphid (Myzus persicae) through systemic means the test unit consisted of 96-well-microtiter plates containing liquid artificial diet under an artificial membrane. The compounds were formulated using a solution containing 75% v/v water and 25% v/v DMSO. Different concentrations of formulated compounds were pipetted into the aphid diet, using a custom built pipetter, at two replications. After application, 5-8 adult aphids were placed on the artificial membrane inside the microtiter plate wells. The aphids were then allowed to suck on the treated aphid diet and incubated at about 23±1° C. and about 50±5% relative humidity for 3 days. Aphid mortality and fecundity was then visually assessed.

[4] = system: boll weevil (Anthonomus grandis); assay: Boll weevil (Anthonomus grandis) egg and larval mortality, insect diet in 96-well microtiter plates; conditions: 120 h, 5 days, read-out: mortality in comparison with untreated controls (egg and larval mortality)
Protocol: as §1
Boll Weevil (Anthonomus grandis)
(§2) For evaluating control of boll weevil (Anthonomus grandis) the test unit consisted of 96-well-microtiter plates containing an insect diet and 5-10 A. grandis eggs. The compounds were formula ted using a solution containing 75% v/v water and 25% v/v DMSO. Different concentrations of formulated compounds were sprayed onto the insect diet at 5 μl, using a custom built micro atomizer, at two replications. After application, microtiter plates were incubated at about 25±1° C. and about 75±5% relative humidity for 5 days. Egg and larval mortality was then visually assessed.

[5] = system: tobacco budworm (Heliothis virescens); assay: Tobacco budworm (Heliothis virescens) egg and larval mortality, insect diet in 96-well microtiter plates; conditions: 120 h, 5 days, read-out: mortality in comparison with untreated controls (egg and larval mortality)
Protocol: as §1
Tobacco Budworm (Heliothis virescens)
as §2, with “of tobacco budworm (Heliothis virescens)” for “of boll weevil (Anthonomus grandis)”, “and 15-25 H. virescens” for “and 5-10 A. grandis”, “were formulated” for “were formula ted”, “at 10” for “at 5”, “about 28±1°” for “about 25±1°”, “about 80±5%” for “about 75±5%”

| Compound | mortality at 800 ppm [1] [%] | mortality at 2500 ppm [2] [%] | mortality at 2500 ppm [3] [%] | mortality at 2500 ppm [4] [%] | mortality at 2500 ppm [5] [%] | mortality at 800 ppm [4] [%] | mortality at 800 ppm [5] [%] | mortality at 800 ppm [3] [%] |
| --- | --- | --- | --- | --- | --- | --- | --- | --- |
| CCS(=O)(=O)c1c(-c2nc3cnc4c(OC(F)(F)F)cccc4c3n2C)nc2ccc(C(F)(F)F)cn12 [C-1] | ≥ 75 | > 75 | > 75 | > 75 | > 75 | – | – | – |
| CCS(=O)(=O)c1c(-c2nc3cnc4c(C(F)(F)F)cccc4c3n2C)nc2ccc(C(F)(F)F)cn12 [C-2] | ≥ 75 | > 75 | > 75 | > 75 | > 75 | – | – | – |
| CCS(=O)(=O)c1c(-c2nc3cnc4c(C(F)(F)F)cccc4c3n2C)nc2ccccn12 [C-3] | ≥ 75 | > 75 | > 75 | > 75 | > 75 | – | – | – |
| CCS(=O)(=O)c1c(-c2nc3cnc4c(OC(F)(F)F)cccc4c3n2C)nc2ccccn12 [C-4, 2-(3-ethylsulfonylimidazo[1,2-a]pyridin-2-yl)-1-methyl-6-(trifluoromethoxy)imidazo[4,5-c]quinoline] | ≥ 75 | > 75 | > 75 | > 75 | > 75 | – | – | – |
| CCS(=O)(=O)c1c(-c2nc3cnc4cc(C(F)(F)F)ccc4c3n2C)nc2ccccn12 [C-6] | – | – | – | > 75 | > 75 | – | – | – |
| CCS(=O)(=O)c1c(-c2cn3c(ccc4c(C(F)(F)F)ccnc43)n2)nc2ccccn12 [C-7, 8-(3-ethylsulfonylimidazo[1,2-a]pyridin-2-yl)-4-(trifluoromethyl)imidazo[1,2-a][1,8]naphthyridine] | ≥ 75 | – | > 75 | > 75 | > 75 | – | – | – |
| CCS(=O)(=O)c1c(-c2cn3c(ccc4c(C(F)(F)F)cc(C(F)(F)F)nc43)n2)nc2ccc(C(F)(F)F)cn12 [C-8] | – | – | – | – | – | > 75 | > 75 | – |
| CCS(=O)(=O)c1c(-c2cn3c(ccc4c(C(F)(F)F)ccnc43)n2)nc2ccc(C(F)(F)F)cn12 [C-9] | ≥ 75 | – | – | – | – | > 75 | > 75 | > 75 |
| CCS(=O)(=O)c1c(-c2cn3c(ccc4c(C(F)(F)F)ccnc43)n2)nn2ccccc12 [C-10] | – | – | – | – | – | > 75 | – | > 75 |
| CCS(=O)(=O)c1c(-c2nc3cc(C(F)(F)F)c4ncccc4c3n2C)nc2ccccn12 [C-11, 2-(3-ethylsulfonylimidazo[1,2-a]pyridin-2-yl)-1-methyl-5-(trifluoromethyl)imidazo[4,5-f]quinoline] | – | – | – | – | – | > 75 | > 75 | > 75 |
| CCS(=O)(=O)c1c(-c2nc3cnc4c(C(F)(F)F)cccc4c3n2C)nc2n1CCCC2 [C-12] | ≥ 75 | – | – | – | – | > 75 | > 75 | > 75 |
| CCS(=O)(=O)c1c(-c2nc3cnc4cc(OC(F)(F)F)ccc4c3n2C)nc2n1CCCC2 [C-14] | – | – | – | – | – | – | > 75 | > 75 |
| CCS(=O)(=O)c1c(-c2nc3cnc4cc(OC(F)(F)F)ccc4c3n2C)nc2ncccn12 [C-15] | – | – | – | – | – | – | – | > 75 |
| CCS(=O)(=O)c1c(-c2nc3cnc4c(C(F)(F)F)cccc4c3n2C)nc2ncccn12 [C-16] | – | – | – | – | – | – | – | > 75 |
| CCS(=O)(=O)c1c(-c2nc3cnc4c(OC(F)(F)F)cccc4c3n2C)nc2ncccn12 [C-17] | – | – | – | – | – | – | – | > 75 |
| CCS(=O)(=O)c1c(-c2nc3cnc4cc(C(F)(F)F)ccc4c3n2C)nc2ncccn12 [C-18] | – | – | – | – | – | – | > 75 | – |
| CCS(=O)(=O)c1c(-c2nc3cnc4c(C(F)(F)F)cccc4c3n2C)nn2ccccc12 [C-19] | ≥ 75 | – | – | – | – | > 75 | > 75 | > 75 |
| CCS(=O)(=O)c1c(-c2nc3cnc4cc(C(F)(F)F)ccc4c3n2C)nn2ccccc12 [C-20] | – | – | – | – | – | > 75 | > 75 | – |
| CCS(=O)(=O)c1c(-c2nc3cnc4c(OC(F)(F)F)cccc4c3n2C)nn2ccc(C(C)(C)C#N)cc12 [C-22] | – | – | – | – | – | > 75 | > 75 | > 75 |
| CCS(=O)(=O)c1c(-c2nc3cnc4cc(OC(F)(F)F)ccc4c3n2C)nn2ccc(C(C)(C)C#N)cc12 [C-23] | – | – | – | – | – | > 75 | > 75 | – |
| CCS(=O)(=O)c1c(-c2nc3cnc4cc(C(F)(F)F)ccc4c3n2C)nc2ccc(Br)cn12 [C-27] | ≥ 75 | – | – | – | – | > 75 | > 75 | – |
| CCS(=O)(=O)c1c(-c2nc3cnc4c(C(F)(F)F)cccc4c3n2C)nc2ccc(Br)cn12 [C-28] | ≥ 75 | – | – | – | – | > 75 | > 75 | > 75 |
| CCS(=O)(=O)c1c(-c2nc3cnc4cc(OC(F)(F)F)ccc4c3n2C)nn2ccccc12 [C-29] | ≥ 75 | – | – | – | – | > 75 | > 75 | > 75 |
